Laboratory results as given in patent publication US11142560B2, “Biphasic single-chain insulin analogues” (Case Western Reserve University, priority 2014, dated 2021).
pKd: −log10 of the molar value. Bridge positions count the residues as written; N and C are the ends. Ends that are not written are not given here.

Molecular target: A isoform of the insulin receptor (Homo sapiens, UniProt P06213)
Assay: Receptor-binding assay, insulin receptor A isoform
Details: two-site sequential model, read-out: equilibrium dissociation constant / binding constant
Description: The receptor-binding affinities of SCI-57DP and SCI-57PE were determined in relation to wild-type human insulin. The assay employed the A isoform of the insulin receptor. […] The protocol for assay of receptor-binding activities was as follows. Microtiter strip plates (Nunc Maxisorb) were incubated overnight at 4° C. with AU5 IgG (100 μl/well of […] in phosphate-buffered saline). Binding data were analyzed by a two-site sequential model.

Chain of A isoform of the insulin receptor (P06213 28-746 isoform P06213-2 limits assumed): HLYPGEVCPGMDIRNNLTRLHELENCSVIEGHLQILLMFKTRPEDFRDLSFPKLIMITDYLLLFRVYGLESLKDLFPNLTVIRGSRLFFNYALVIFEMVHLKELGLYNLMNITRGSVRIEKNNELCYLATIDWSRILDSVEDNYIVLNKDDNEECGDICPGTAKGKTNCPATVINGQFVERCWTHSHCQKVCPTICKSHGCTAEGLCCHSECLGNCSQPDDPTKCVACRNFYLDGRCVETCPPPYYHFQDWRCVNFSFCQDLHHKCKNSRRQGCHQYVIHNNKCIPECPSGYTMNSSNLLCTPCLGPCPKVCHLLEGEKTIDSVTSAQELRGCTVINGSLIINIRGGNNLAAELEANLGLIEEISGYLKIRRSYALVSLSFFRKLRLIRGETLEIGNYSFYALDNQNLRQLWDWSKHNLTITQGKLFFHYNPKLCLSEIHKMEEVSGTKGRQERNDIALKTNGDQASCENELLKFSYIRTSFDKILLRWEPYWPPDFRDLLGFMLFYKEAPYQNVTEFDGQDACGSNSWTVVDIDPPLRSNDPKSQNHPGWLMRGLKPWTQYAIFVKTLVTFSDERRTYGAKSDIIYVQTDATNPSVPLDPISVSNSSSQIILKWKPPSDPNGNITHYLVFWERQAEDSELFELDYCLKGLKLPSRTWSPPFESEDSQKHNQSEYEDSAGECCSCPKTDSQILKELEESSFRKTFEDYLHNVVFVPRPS
Chain of A isoform of the insulin receptor (P06213 763-1382 partner limits assumed): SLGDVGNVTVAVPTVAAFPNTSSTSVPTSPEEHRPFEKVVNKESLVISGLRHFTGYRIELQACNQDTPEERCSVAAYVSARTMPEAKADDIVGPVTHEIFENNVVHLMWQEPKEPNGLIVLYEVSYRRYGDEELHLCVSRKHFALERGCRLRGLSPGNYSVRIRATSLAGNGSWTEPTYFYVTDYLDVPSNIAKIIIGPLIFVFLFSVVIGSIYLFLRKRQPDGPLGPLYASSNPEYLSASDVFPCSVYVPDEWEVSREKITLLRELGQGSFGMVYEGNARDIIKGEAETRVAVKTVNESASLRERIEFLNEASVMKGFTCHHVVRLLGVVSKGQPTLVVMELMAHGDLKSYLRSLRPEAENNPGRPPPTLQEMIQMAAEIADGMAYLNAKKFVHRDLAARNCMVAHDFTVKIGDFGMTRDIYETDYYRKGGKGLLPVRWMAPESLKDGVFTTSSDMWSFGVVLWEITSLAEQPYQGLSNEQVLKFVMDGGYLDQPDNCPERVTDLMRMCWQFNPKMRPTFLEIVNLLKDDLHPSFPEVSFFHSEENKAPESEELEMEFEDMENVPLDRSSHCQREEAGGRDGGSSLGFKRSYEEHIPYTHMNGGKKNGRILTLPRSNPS

| pKd | Sequence |
| --- | --- |
| 10.22 | FVNQHLCGSHLVEALYLVCGERGFFYTDPTEEGPRRGIVEQCCHSICSLEQLENYCN (disulfide 7-43, 19-56, 42-47) [SCI-57DP] |
| 10.10 | FVNQHLCGSHLVEALYLVCGERGFFYTPETEEGPRRGIVEQCCHSICSLEQLENYCN (disulfide 7-43, 19-56, 42-47) [SCI-57PE] |
